Patent US20090239928A1, “N-Pyrrolidin-3YL-Amide Derivatives As Serotonin and Noradrenalin Re-Uptake Inhibitors” (priority 2004, published 2009)
pKi: −log10 of the molar value. Where a name gives a salt, the structure may show the parent alone. Read-outs that look alike come from different tables or passages of the source.

Assays:
[1] = biological target: T1, human serotonin transporter (hSERT) (Homo sapiens, UniProt P31645); experiment: SPA radioligand binding at human serotonin transporter (3H-citalopram)
T1 construct: expressed in transfected cells; host or cells: HEK-293
T1 sequence (P31645 whole entry): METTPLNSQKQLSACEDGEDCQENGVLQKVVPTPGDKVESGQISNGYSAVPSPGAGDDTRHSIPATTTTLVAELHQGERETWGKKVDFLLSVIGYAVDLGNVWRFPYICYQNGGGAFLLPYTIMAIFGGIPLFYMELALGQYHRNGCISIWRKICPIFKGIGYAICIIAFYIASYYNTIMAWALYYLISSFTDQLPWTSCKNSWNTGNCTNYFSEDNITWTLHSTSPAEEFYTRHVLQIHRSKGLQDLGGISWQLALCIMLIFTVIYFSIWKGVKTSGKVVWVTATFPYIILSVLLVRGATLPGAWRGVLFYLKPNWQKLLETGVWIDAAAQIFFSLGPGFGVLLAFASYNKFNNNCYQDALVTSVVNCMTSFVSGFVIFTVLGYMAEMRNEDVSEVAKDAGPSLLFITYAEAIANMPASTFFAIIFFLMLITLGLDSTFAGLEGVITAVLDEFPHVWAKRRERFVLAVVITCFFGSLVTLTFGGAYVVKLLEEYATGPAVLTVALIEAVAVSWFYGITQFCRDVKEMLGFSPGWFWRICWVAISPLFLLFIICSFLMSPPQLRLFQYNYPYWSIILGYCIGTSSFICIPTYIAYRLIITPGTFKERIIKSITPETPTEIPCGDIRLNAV
Procedure: The compounds are tested for biological activity by their ability to inhibit binding of selective radioligands at the human serotonin and noradrenaline transporters (SERT and NET, respectively), using scintillation proximity assay (SPA) technology. The SPA binding is performed using cellular membrane preparations prepared from cell lines expressing human cDNA encoding either SERT or NET (hSERT, hNET), using the radioligands 3H-citalopram and 3H-nisoxetine.
Human embryonic kidney cells (HEK-293) expressing each transporter are maintained as a continuous culture, using standard cell culture techniques, in 50 mL of growth medium (see Media and Buffers for composition) in 225 cm^2 flasks, at 37° C. in a humidified atmosphere with 5% CO2 present. Cells are passaged from a 90% confluent monolayer at a ratio of 1:3-1:4. For cell harvesting, the growth medium is removed from the monolayer and the cells are incubated with cell dissociation solution (Sigma) until showing signs of dissociation. The cells are subsequently knocked from the base of the flask and pelleted by centrifugation for storage (frozen at −80° C.) prior to further use.
Cell pellets are thawed on ice and resuspended in 3 mL of membrane preparation buffer (see Media and Buffers for composition) per 1 mL of packed cell volume, using a vortex mixer to disperse the cell pellet. • After incubation on ice for 10 minutes, the suspension is homogenised for four individual 10 second intervals using a hand-held homogeniser. The homogenate is then centrifuged at 1075×g for 20 minutes at 4° C. • The supernatants are then collected and retained. Initial cell & nuclei pellets (P1) are subsequently rehomogenised and centrifuged using the conditions cited above, and the supernatants collected and pooled with those retained from the first spin.
The pooled supernatants are centrifuged at 35000×g for 30 minutes at 4° C., and the supernatants discarded. The pellets (P2) are then resuspended in 1 mL of membrane preparation buffer per 1 mL of the original packed cell volume. Protein concentrations are then measured and the membrane suspension was finally frozen in aliquots of set volume and stored at −80° C. prior to use in assays.
The specific SPA bead type differed for each transporter, wheat germ agglutinin-coated yttrium silicate (YSi WGA) SPA beads are used for hSERT and WGA-coated polyvinyltoluene (PvT WGA) SPA beads for hNET assays. For each batch of membrane used, optimal concentrations of bead and membrane are determined
Tritiated radioligands specific to each transporter (3H-citalopram for hSERT and ^3H-nisoxetine for hNET) are used. The assay free radioligand concentration is expressed as a percentage of the total free radioligand concentration to give an estimate of the radioligand depletion. The radioligand depletion in assays for both transporters is less than 30% to ensure that there was sufficient radioligand available for binding. The ligand depletion value is also used for selecting the optimal assay conditions when using new batches of membranes.
The affinity of the specific radioligand for the respective transporter is determined for each membrane batch at the selected protein and bead concentrations. This is achieved by the determination of the KD, the concentration of free radioligand at which 50% of the transporter binding sites were occupied. The mean KD for a radioligand at a batch of membranes is determined from data from a minimum of three separate assays. The mean KD is subsequently used for all assays using the membrane batch profiled to enable determination of Ki values of compounds studied using the method determined by Cheng and Prussoff (Cheng Y C and Prusoff W H. Relationship between the inhibition constant (Ki) and the concentration of inhibitor which causes 50% inhibition of an enzymatic reaction. Biochem Pharmacol 1973; 22:[…].)
The required amount of membrane is thawed on ice and added to a predetermined volume of bead suspension in assay buffer. […]

[2] = biological target: T2, human noradrenaline transporter (hNET) (Homo sapiens, UniProt P23975); experiment: SPA radioligand binding at human noradrenaline transporter (3H-nisoxetine)
T2 construct: expressed in transfected cells; host or cells: HEK-293
T2 sequence (P23975 whole entry): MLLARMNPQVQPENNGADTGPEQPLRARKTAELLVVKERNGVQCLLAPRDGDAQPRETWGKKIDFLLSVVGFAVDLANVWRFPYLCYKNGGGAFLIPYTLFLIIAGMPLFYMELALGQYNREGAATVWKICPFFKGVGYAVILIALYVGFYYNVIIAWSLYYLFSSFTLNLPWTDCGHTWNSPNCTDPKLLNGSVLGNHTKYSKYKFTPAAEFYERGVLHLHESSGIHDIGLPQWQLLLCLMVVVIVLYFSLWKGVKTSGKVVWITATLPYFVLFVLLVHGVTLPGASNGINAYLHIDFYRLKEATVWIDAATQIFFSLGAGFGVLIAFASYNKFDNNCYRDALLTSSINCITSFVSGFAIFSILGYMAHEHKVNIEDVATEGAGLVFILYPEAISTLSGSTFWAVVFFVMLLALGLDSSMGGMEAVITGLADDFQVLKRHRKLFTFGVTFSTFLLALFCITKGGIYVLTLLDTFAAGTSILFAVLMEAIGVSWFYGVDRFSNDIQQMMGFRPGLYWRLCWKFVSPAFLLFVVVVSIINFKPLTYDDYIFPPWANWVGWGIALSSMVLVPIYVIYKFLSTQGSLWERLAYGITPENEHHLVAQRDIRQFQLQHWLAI
Procedure: The affinity of the specific radioligand for the respective transporter is determined for each membrane batch at the selected protein and bead concentrations. […] The mean KD for a radioligand at a batch of membranes is determined from data from a minimum of three separate assays.
The required amount of membrane is thawed on ice and added to a predetermined volume of bead suspension in assay buffer. The beads are then pre-coupled by incubating the predetermined protein quantity per mg of bead on a shaker at a temperature of 4° C. for 2 hours. Subsequently, the bead/membrane complex is spun down at 865×g for 5 minutes. The resulting pellet is resuspended in assay buffer and this spin/wash step is then repeated. The final pellet is then resuspended in assay buffer at the specific concentration required for the final assay.
An aliquot of [^3H]-radioligand stock is diluted in assay buffer to give a pre-determined final assay concentration less than the equilibrium dissociation constant (KD) value.
All test compounds are prepared at a concentration of 4 mM in 100% dimethyl sulphoxide (DMSO) from dry samples.
The same volume of assay buffer is added to specific wells of the plate to enable subsequent measurement of total radioligand binding. Furthermore, 20 μL a high concentration of compound specific to each transporter assay is subsequently added to predetermined wells to determine non-specific binding (NSB).

[3] = hSERT membranes from HEK-293 cells, 3H-citalopram, SPA, read-out: SRI Ki
[4] = hNET membranes from HEK-293 cells, 3H-nisoxetine, SPA, read-out: NRI Ki

Structure (SMILES) | pKi [1, 3] | pKi [2, 4] | pKi [2] | pKi [1]
CSc1ccccc1C(=O)N(CC1(C)CCC1)[C@H]1CCNC1 [Example 9, N-[(1-methylcyclobutyl)methyl]-2-(methylthio)-N-[(3S)-pyrrolidin-3-yl]benzamide hydrochloride] | 7.70 | – | 8.22 | –
O=C(c1ccccc1Oc1ccccc1)N(c1ccccc1)[C@H]1CCNC1 [Example 14, 2-phenoxy-N-phenyl-N-[(3S)-pyrrolidin-3-yl]benzamide hydrochloride] | – | 8.52 | – | 7.17
CSc1ccccc1C(=O)N(C1CCCCC1)[C@H]1CCNC1 [Example 20, N-cyclohexyl-2-(methylthio)-N-[(3S)-pyrrolidin-3-yl]benzamide hydrochloride] | 7.77 | 8.30 | – | –

Second part, led by results:

pKi [1, 3] | pKi [2, 4] | pKi [2] | Structure (SMILES) | pKi [1]
7.15 | 7.92 | – | O=C(c1ccccc1Oc1ccccc1)N(C1CCCC1)[C@H]1CCNC1 [Example 4, N-Cyclopentyl-2-phenoxy-N-[(3S)-pyrrolidin-3-yl]benzamide hydrochloride] | –
5.62 | 8.05 | – | CCCN(C(=O)c1cc(F)ccc1Oc1ccccc1)[C@H]1CCNC1 [Example 7, 5-fluoro-2-phenoxy-N-propyl-N-[(3S)-pyrrolidin-3-yl]benzamide hydrochloride] | –
6.30 | 7.80 | – | O=C(c1ccccc1C1CCCC1)N(CC1CC1)[C@H]1CCNC1 [Example 19, 2-cyclopentyl-N-(cyclopropylmethyl)-N-[(3S)-pyrrolidin-3-yl]benzamide hydrochloride] | –
